Type: in vivo, Sprague–Dawley (SD) rats
Conditions: rat plasma, single oral gavage of 10 mL/kg ABS, n = 6
Experimental: All rats underwent an acclimation period of a week and overnight fasting with free access to water only. Rats were randomly selected and administered the ABS (n = 6, biological replicates). Each rat was administered with a single ABS oral gavage dose of 10 mL/kg. Blood samples (approximately 150 μL) were collected from the orbital venous plexus using heparinized tubes at predefined time points (0, 0.033, 0.083, 0.167, 0.25, 0.5, 0.75, 1, 2, 4, 6, 8, 10, 12, 24, 36, 48, and 60 h) post-administration. The technical personnel were proficiently trained in performing orbital venous plexus blood draws, employing a technique designed to minimize discomfort to the animals. All rats received an intragastric administration of 1 mL saline at 6 h post-dosing, after which they were provided with unrestricted access to food and water for the remainder of the experimental period. […]
Chromatographic separation was performed on a Thermo BDS Hypersil C18 column (100 × 4.6 mm, 3 µm) with linear gradient elution at a flow rate of 0.7 mL/min using methanol and water both containing 0.1% acetic acid as the mobile phases A and B, respectively. […] The quantification analysis was conducted under multiple reaction monitoring mode with argon collision gas pressure set at 0.2 Pa for collision-induced dissociation. […]

Row | Tmax | SMILES | t1/2
1 | – | Cc1cc(O)c2c(c1)C(=O)c1cc(O)cc(O)c1C2=O [EM, emodin] | 4.63 ± 1.53 h
2 | 0.20 ± 0.03 h | O=C1C[C@@H](c2ccc(O[C@@H]3O[C@H](CO)[C@@H](O)[C@H](O)[C@H]3O)cc2)Oc2cc(O)ccc21 [LI, liquiritin] | –

From article PMC13028611, “Hepatotoxicity Assessment of Anshenbunao Syrup by Multi-Component Quantification In Vivo/In Vitro and Cell Biological Evaluations” (Pharmaceuticals, 2026)
